From PubChem BioAssay (NCI)
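These data come from cells grown in 96-well plates and exposed to compound for 48 hours at five concentrations. At the TGI there is no net growth.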

Columns and labels:
Assay in all cases: NCI tumour cell line growth inhibition, 48 h
[1] = tested on: M14 melanoma
[2] = tested on: HCT-116 colon
[3] = tested on: KM12 colon
[4] = tested on: HCC-2998 colon
[5] = tested on: SR leukemia
[6] = tested on: NCI/ADR-RES ovarian
[7] = tested on: SF-295 CNS
[8] = tested on: PC-3 prostate
[9] = tested on: NCI-H522 lung
[10] = tested on: HT29 colon
[11] = tested on: SF-268 CNS
[12] = tested on: OVCAR-3 ovarian
[13] = tested on: RPMI-8226 leukemia
[14] = tested on: NCI-H23 lung
[15] = tested on: HCT-15 colon
[16] = tested on: MDA-N
[17] = tested on: A549 NSCLC
[18] = tested on: UACC-62 melanoma
[19] = tested on: UO-31 renal
[20] = tested on: EKVX NSCLC
[21] = tested on: HOP-92 NSCLC
[22] = tested on: SK-MEL-5 melanoma
[23] = tested on: HOP-62 NSCLC
[24] = tested on: A498 renal
[25] = tested on: BT-549 breast
[26] = tested on: MOLT-4 leukemia
[27] = tested on: NCI-H226 lung
[28] = tested on: T-47D breast
[29] = tested on: SK-MEL-2 melanoma
[30] = tested on: LOX IMVI melanoma
[31] = tested on: U251 CNS
[32] = tested on: SN12C renal
[33] = tested on: MDA-MB-231 breast
[34] = tested on: 786-0 renal
[35] = tested on: OVCAR-8 ovarian
[36] = tested on: DU-145 prostate
[37] = tested on: CCRF-CEM leukemia
[38] = tested on: UACC-257 melanoma
[39] = tested on: MALME-3M melanoma
[40] = tested on: SK-OV-3 ovarian
[41] = tested on: IGROV1 ovarian
[42] = tested on: OVCAR-5 ovarian
[43] = tested on: NCI-H460 lung
[44] = tested on: K-562 leukemia
[45] = tested on: RXF 393 renal
[46] = tested on: HS 578T breast
[47] = tested on: SNB-19 CNS
[48] = tested on: OVCAR-4 ovarian
[49] = tested on: MCF7 breast
[50] = tested on: HL-60(TB) leukemia
[51] = tested on: MDA-MB-435
[52] = tested on: ACHN renal
[53] = tested on: CAKI-1 renal
[54] = tested on: TK-10 renal
[55] = tested on: SNB-75 CNS
[56] = tested on: SF-539 CNS
[57] = tested on: COLO 205 colon
[58] = tested on: SW-620 colon
[59] = tested on: SK-MEL-28 melanoma

CCc1nn(CN2CCN(C)CC2)c(=S)n1/N=C\c1ccc(-c2ccc([N+](=O)[O-])cc2)o1
TGI [1]: > 100 µM
TGI [2]: > 100 µM
TGI [3]: > 100 µM
TGI [4]: > 100 µM
TGI [5]: > 100 µM
TGI [6]: 73.2 µM
TGI [7]: > 100 µM
TGI [8]: > 100 µM
TGI [9]: > 100 µM
TGI [10]: > 100 µM
TGI [11]: > 100 µM
TGI [12]: > 100 µM
TGI [13]: > 100 µM
TGI [14]: > 100 µM
TGI [15]: > 100 µM
TGI [16]: > 100 µM
TGI [17]: > 100 µM
TGI [18]: > 100 µM
TGI [19]: > 100 µM
TGI [20]: > 100 µM
TGI [21]: > 100 µM
TGI [22]: > 100 µM
TGI [23]: > 100 µM
TGI [24]: 54.7 µM
TGI [25]: > 100 µM
TGI [26]: > 100 µM
TGI [27]: 86.4 µM
TGI [28]: 68.5 µM
TGI [29]: > 100 µM
TGI [30]: > 100 µM
TGI [31]: > 100 µM
TGI [32]: > 100 µM
TGI [33]: > 100 µM
TGI [34]: > 100 µM
TGI [35]: > 100 µM
TGI [36]: > 100 µM
TGI [37]: > 100 µM
TGI [38]: > 100 µM
TGI [39]: > 100 µM
TGI [40]: > 100 µM
TGI [41]: > 100 µM
TGI [42]: > 100 µM
TGI [43]: > 100 µM
TGI [44]: > 100 µM
TGI [45]: 82.5 µM
TGI [46]: > 100 µM
TGI [47]: > 100 µM
TGI [48]: > 100 µM
TGI [49]: > 100 µM
TGI [50]: > 100 µM
TGI [51]: > 100 µM
TGI [52]: > 100 µM
TGI [53]: > 100 µM
TGI [54]: 71.3 µM

COc1cc2c(cc1OC)C13CCN4C=C5CCOC6CC(=O)N2C1C6C5CC43 (configuration not stated)
TGI [1]: > 100 µM
TGI [2]: > 100 µM
TGI [3]: > 100 µM
TGI [5]: > 100 µM
TGI [6]: > 100 µM
TGI [7]: > 100 µM
TGI [8]: > 100 µM
TGI [9]: > 100 µM
TGI [10]: > 100 µM
TGI [11]: > 100 µM
TGI [12]: > 100 µM
TGI [13]: > 100 µM
TGI [14]: > 100 µM
TGI [15]: > 100 µM
TGI [16]: > 100 µM
TGI [17]: > 100 µM
TGI [18]: > 100 µM
TGI [19]: > 100 µM
TGI [20]: > 100 µM
TGI [21]: > 100 µM
TGI [22]: > 100 µM
TGI [23]: > 100 µM
TGI [24]: > 100 µM
TGI [25]: > 100 µM
TGI [26]: > 100 µM
TGI [27]: > 100 µM
TGI [28]: > 100 µM
TGI [29]: > 100 µM
TGI [30]: > 100 µM
TGI [31]: > 100 µM
TGI [32]: > 100 µM
TGI [33]: > 100 µM
TGI [34]: > 100 µM
TGI [35]: > 100 µM
TGI [36]: > 100 µM
TGI [37]: > 100 µM
TGI [55]: > 100 µM
TGI [56]: > 100 µM
TGI [38]: > 100 µM
TGI [39]: > 100 µM
TGI [40]: > 100 µM
TGI [41]: > 100 µM
TGI [42]: > 100 µM
TGI [43]: > 100 µM
TGI [44]: > 100 µM
TGI [45]: > 100 µM
TGI [46]: > 100 µM
TGI [47]: > 100 µM
TGI [48]: > 100 µM
TGI [49]: > 100 µM
TGI [50]: > 100 µM
TGI [51]: > 100 µM
TGI [57]: > 100 µM
TGI [52]: > 100 µM
TGI [58]: > 100 µM
TGI [53]: > 100 µM
TGI [54]: > 100 µM
TGI [59]: > 100 µM
